Earlier results on 1 compound are cited in patent US20120302500A1, “USE OF SO[…] IN MENINGIOMA” (NOVARTIS AG, priority 2008, published 2012).

The conditions of this data set: in vivo.

Molecules are shown by their SMILES. Starred links: 1 amine or outer side, 2 acyl side, 3 side chain; linkers in the order of their positions; H or OH if unused. Non-standard residues stand in square brackets, D forms with d. Residues, ends and D or L forms follow the SMILES beside them. Groups on a side chain read outwards from the residue. *: point of attachment. Ethylenediamine = C(CN[*:2])N[*:1]; Hyp = O=C(O)[C@@H]1C[C@@H](O)CN1; Phg = N[C@H](C(=O)O)c1ccccc1; CO = O=C([*:1])[*:2]; Bn = c1ccc(C*)cc1

On to `NCCCC[C@@H]1NC(=O)[C@@H](Cc2c[nH]c3ccccc23)NC(=O)[C@H](c2ccccc2)NC(=O)[C@@H]2C[C@@H](OC(=O)NCCN)CN2C(=O)[C@H](Cc2ccccc2)NC(=O)[C@H](Cc2ccc(OCc3ccccc3)cc2)NC1=O` [pasireotide, cyclo[{4-(NH2—C2H4—NH—CO—O—)Pro}-Phg-DTrp-Lys-Tyr(4-Bzl)-Phe]] (cyclo([Hyp]([CO-Ethylenediamine])[Phg][dW]KY(Bn)F)), for which the half-life is 11 h.
